Data as given in US9126969B2, “Pyrazolylbenzimidazole derivatives, compositions containing them and use thereof” (AVENTIS PHARMA S.A., priority 2006, dated 2015).
pIC50: −log10 of the molar value. Where a name gives a salt, the structure may show the parent alone. Read-outs that look alike come from different tables or passages of the source.

How the values were obtained:
[1] = tested on: HeLa cells (tumor cell line); test: FDA-PI viability/proliferation assay on HeLa tumor cells; format: cell-based; details: for pIC50: Homo sapiens; for ratio: PBL viability IC50 / HeLa viability IC50
Experimental: (§1) The compounds were tested in a viability/proliferation assay for comparing, under similar conditions, their activity on proliferating tumor cells and on quiescent normal cells.
(§2) The HeLa cells (tumor cell line) and the PBLs (quiescent cells, peripheral blood lymphocytes) originate, respectively, from the ATCC and from Cambrex.
(§3) The HeLa cells (tumor cell line) are seeded at 0.25×10^6 cells/well in 2 mL of culture medium. The products are added 24 h after seeding. After incubation for 48 h in the presence of the products, all the HeLa cells (supernatant and adherent cells) are recovered, centrifuged and taken up in PBS containing a final concentration of 0.25 μg/mL of fluorescein diacetate (FDA), 10 μg/mL of propidium iodide (PI) and 3 μL/mL of 10 μm beads. The cell suspensions are filtered immediately before analysis on the Facscalibur. The PBLs are seeded at 10^6 cells/well in 2 mL of culture medium. The products are added 1-4 h after seeding. After incubation for 48 h in the presence of the products, half the cell suspension is recovered and incubated in the presence of a final concentration of 0.25 μg/mL of fluorescein diacetate (FDA), 10 μg/mL of propidium iodide (PI) and 2 μL/mL of 10 μm beads.
(§4) The FDA which enters the cells is cleaved by esterases only in live cells, releasing the fluorescein which emits a fluorescent radiation in the green range when it is excited (generally by UV radiation). The PI enters only the dead cells, the membrane of which is permeabilized, and emits a fluorescent radiation in the red range when it is excited. The beads are used as tracers for the dead cells having already disappeared at the time of reading.
(§5) Calculation: The % of viable cells relative to the nontreated control is given by: (number of live cells/number of live cells in the control)/(number of beads/number of beads in the control)×100 for the HeLa cells, and by: (number of live cells/number of live cells in the control)×100 for the quiescent PBLs. The products according to the invention are tested at several concentrations and an IC50, corresponding to the concentration which causes 50% of the maximum inhibition, is calculated.

[2] = tested on: PBLs (quiescent cells, peripheral blood lymphocytes); test: FDA-PI viability assay on quiescent PBLs; format: cell-based; details: Lymphocyte, 48 h incubation, read-out: Viability PBL IC50
Experimental: as §1, §2, §3, §4, §5

[3] = HeLa, read-out: IC50 values on the tumor cells
[4] = HeLa cells, 48 h incubation, read-out: Viability HeLa IC50

Row | SMILES | pIC50 [1, 3] | pIC50 [1, 4] | ratio [1] | pIC50 [2]
1 | CC(C)N(C(=O)Nc1c[nH]nc1-c1nc2cc(F)c(N3CCCOCC3)cc2[nH]1)C(C)C [Example 8, 3-[3-(5-fluoro-6-perhydro-1,4-oxazepan-4-yl-1H-benzimidazol-2-yl)-1H-pyrazol-4-yl]-1,1-diisopropylurea] | > 7.00 |  |  | 
2 | CCN(CC)C(=O)Nc1c[nH]nc1-c1nc2cc(F)c(NCCN(C)C)cc2[nH]1 [Example 15, 3-{3-[6-(2-dimethylaminoethylamino)-5-fluoro-1H-benzimidazol-2-yl]-1H-pyrazol-4-yl}-1,1-diethylurea Trifluoroacetate] | > 7.00 |  |  | 
3 | CCN(CC)C(=O)Nc1c[nH]nc1-c1nc2cc(OCCCCN3CCCCC3)c(F)cc2[nH]1 [Example 9, 1,1-diethyl-3-{3-[6-fluoro-5-(4-piperidin-1-ylbutoxy)-1H-benzimidazol-2-yl]-1H-pyrazol-4-yl}urea Trifluoroacetate] | > 7.00 |  |  | 
4 | CCN(C(=O)Nc1c[nH]nc1-c1nc2cc(F)c(OCCCN(C)C)cc2[nH]1)C(C)C [Example 33, 3-{3-[6-(3-dimethylaminopropoxy)-5-fluoro-1H-benzimidazol-2-yl]-1H-pyrazol-4-yl}-1-ethyl-1-isopropylurea] | > 7.00 |  |  | 
5 | CC(C)N(C(=O)Nc1c[nH]nc1-c1nc2cc(F)c(N3CCN(C)CC3)cc2[nH]1)C(C)C [Example 39, 3-{3-[5-Fluoro-6-(4-methylpiperazin-1-yl)-1H-benzimidazol-2-yl]-1H-pyrazol-4-yl}-1,1-diisopropylurea trifluoroacetate] | > 7.00 |  |  | 
6 | CN1CCCN(c2cc3[nH]c(-c4n[nH]cc4NC(=O)N4CCCCC4)nc3cc2F)CC1.O=C(O)C(F)(F)F [Example 17, N-{3-[5-fluoro-6-(4-methylperhydro-1,4-diazepin-1-yl)-1H-benzimidazol-2-yl]-1H-pyrazol-4-yl}-piperidine-1-carboxamide Trifluoroacetate] |  | 7.00 | 42 | 5.37
7 | CC(C)N(C(=O)Nc1c[nH]nc1-c1nc2cc(F)c(N3CCOCC3)cc2[nH]1)C(C)C [Example 16, 3-[3-(5-fluoro-6-morpholin-4-yl-1H-benzimidazol-2-yl)-1H-pyrazol-4-yl]-1,1-diisopropylurea] | > 7.00 |  |  | 
8 | O=C(Nc1c[nH]nc1-c1nc2cc(F)c(N3CCCOCC3)cc2[nH]1)N1CCCCC1 [Example 38] |  | 7.07 | 108 | 5.04
9 | CCN(CC)C(=O)Nc1c[nH]nc1-c1nc2ccc(N3CCN(C)CC3)cc2[nH]1 [Example 19, 1,1-diethyl-3-{3-[6-(4-methylpiperazin-1-yl)-1H-benzimidazol-2-yl]-1H-pyrazol-4-yl}urea] | > 7.00 |  |  | 
10 | CCN(CC)C(=O)Nc1c[nH]nc1-c1nc2cc(F)c(OCCCN(C)C)cc2[nH]1 [Example 5, 3-{3-[6-(3-dimethylaminopropoxy)-5-fluoro-1H-benzimidazol-2-yl]-1H-pyrazol-4-yl}-1,1-diethylurea Trifluoroacetate] | > 7.00 |  |  | 
11 | CCN(C(=O)Nc1c[nH]nc1-c1nc2ccc(N3CCN(C)CC3)cc2[nH]1)C(C)C [Example 37, 1-Ethyl-1-isopropyl-3-{3-[6-(4-methylpiperazin-1-yl)-1H-benzimidazol-2-yl]-1H-pyrazol-4-yl}urea] | > 7.00 |  |  | 
12 | CCN(CC)C(=O)Nc1c[nH]nc1-c1nc2cc(F)c(N3CCCN(C)CC3)cc2[nH]1 [Example 18, 1,1-diethyl-3-{3-[5-fluoro-6-(4-methylperhydro-1,4-diazepin-1-yl)-1H-benzimidazol-2-yl]-1H-pyrazol-4-yl}urea] |  | 7.41 | 96 | 5.42
13 | CCN(CC)C(=O)Nc1c[nH]nc1-c1nc2cc(F)c(N3CCN(C)CC3)cc2[nH]1 [Example 13, 1,1-diethyl-3-{3-[5-fluoro-6-(4-methylpiperazin-1-yl)-1H-benzimidazol-2-yl]-1H-pyrazol-4-yl}urea] | > 7.00 |  |  | 
14 | CN(C)CCCOc1cc2[nH]c(-c3n[nH]cc3NC(=O)N3CCNCC3)nc2cc1F [Example 31, N-{3-[6-(3-Dimethylaminopropoxy)-5-fluoro-1H-benzimidazol-2-yl]-1H-pyrazol-4-yl}piperazine-1-carboxamide] | 4.52 to 5.30 |  |  | 
15 | CCN(CC)C(=O)Nc1c[nH]nc1-c1nc2cc(F)c(OCCCN3CCCCC3)cc2[nH]1 [Example 6, 1,1-diethyl-3-{3-[5-fluoro-6-(3-piperidin-1-ylpropoxy)-1H-benzimidazol-2-yl]-1H-pyrazol-4-yl}urea Hydrochloride] | > 7.00 |  |  | 
16 | CN1CCN(c2cc3[nH]c(-c4n[nH]cc4NC(=O)N4CCCCC4)nc3cc2F)CC1.O=C(O)C(F)(F)F [Example 12, N-{3-[5-fluoro-6-(4-methylpiperazin-1-yl)-1H-benzimidazol-2-yl]-1H-pyrazol-4-yl}piperidine-1-carboxamide Trifluoroacetate] |  | 7.25 | 62 | 5.46
17 | CCN(CC)C(=O)Nc1c[nH]nc1-c1nc2cc(F)c(N3CCOCC3)cc2[nH]1 [Example 2, 1,1-diethyl-3-[3-(5-fluoro-6-morpholin-4-yl-1H-benzimidazol-2-yl)-1H-pyrazol-4-yl]urea Trifluoroacetate] | > 7.00 |  |  | 
18 | CCN(CC)C(=O)Nc1c[nH]nc1-c1nc2cc(F)c(N3CCCOCC3)cc2[nH]1 [Example 11, 1,1-diethyl-3[3-(5-fluoro-6-perhydro-1,4-oxazepin-4-yl-1H-benzimidazol-2-yl)-1H-pyrazol-4-yl]urea] | > 7.00 |  |  | 
19 | CCN(CC)C(=O)Nc1c[nH]nc1-c1nc2cc(F)c(OCCN3CCCCC3)cc2[nH]1 [Example 4, 1,1-diethyl-3-{3-[5-fluoro-6-(2-piperidin-1-ylethoxy)-1H-benzimidazol-2-yl]-1H-pyrazol-4-yl}urea Trifluoroacetate] | > 7.00 |  |  | 
20 | CN1CCN(c2ccc3nc(-c4n[nH]cc4NC(=O)N4CCCCC4)[nH]c3c2)CC1 [Example 20, N-{3-[6-(4-methylpiperazin-1-yl)-1H-benzimidazol-2-yl]-1H-pyrazol-4-yl}piperidine-1-carboxamide] | > 7.00 |  |  | 
21 | CC(C)N(C(=O)Nc1c[nH]nc1-c1nc2ccc(N3CCN(C)CC3)cc2[nH]1)C(C)C [Example 34, 1,1-Diisopropyl-3-{3-[6-(4-methylpiperazin-1-yl)-1H-benzimidazol-2-yl]-1H-pyrazol-4-yl}urea] | > 7.00 |  |  | 
22 | Cl.O=C(Nc1c[nH]nc1-c1nc2cc(F)c(N3CCOCC3)cc2[nH]1)N1CCCCC1 [Example 1, N-[3-(5-fluoro-6-morpholin-4-yl-1H-benzimidazol-2-yl)-1H-pyrazol-4-yl]piperidine-1-carboxamide Hydrochloride] |  | 6.97 | 70 | 5.12
23 | CC(C)N(C(=O)Nc1c[nH]nc1-c1nc2cc(F)c(N3CCCN(C)CC3)cc2[nH]1)C(C)C [Example 40, 3-{3-[5-Fluoro-6-(4-methylperhydro-1,4-diazepin-1-yl)-1H-benzimidazol-2-yl]-1H-pyrazol-4-yl}-1,1-diisopropylurea] | > 7.00 |  |  | 
